Data as given in PMC12275099, “VX-445 (elexacaftor) inhibits chloride secretion across human bronchial epithelial cells by directly blocking KCa3.1 channels” (PNAS Nexus, 2025).

Columns and labels:
[1] = tested on: corrected F508del CFTR-expressing HBEs; experiment: Ussing chamber Isc, forskolin plus VX-770-stimulated Cl- secretion; type: cell-based, human
Description: It has been proposed that, similar to potentiation of basolateral KCa3.1, potentiation of apical BKCa would further stimulate Cl^− secretion across HBEs by increasing the electrochemical driving force for Cl^− exit across the apical membrane ([18], [19]). To assess this possibility, we determined whether acute addition of VX-445 affects forskolin-mediated Cl^− secretion across primary WT CFTR-expressing HBEs, using Isc measurements. […] Note, as VX-445 is a lipophilic compound, it was added to both apical and basolateral membranes. The addition of bumetanide (20 µM) further reduced Isc, as expected. […] In a total of nine filters from three separate donors, VX-445 inhibited an average of 47 ± 2% of the current, subsequent to VX-661 (P < 0.01). […] The current observed following forskolin stimulation consists of both bumetanide-sensitive Cl^− secretion and bumetanide-insensitive HCO3− secretion ([32–34]). Thus, we determined whether VX-445 would inhibit the remaining current subsequent to bumetanide. […] Given the surprising inhibition of Cl^− secretion observed, we chose to stimulate Cl^− secretion via an alternate mechanism and assess the effect of VX-445. […] Thus, we determined the effect of VX-445 on the DCEBIO-induced Cl^− secretory response. […] We next determined whether VX-445 would similarly decrease the forskolin-stimulated transepithelial Cl^− currents in corrected F508del HBEs. […]

[2] = tested on: BKCa (KCa1.1, KCNMA1) channels; design: method as in PMID 38954478; conditions: primary HBEs and HEK cells heterologously expressing the channel; cited from earlier work

Cc1nn(C)cc1S(=O)(=O)NC(=O)c1ccc(-n2ccc(OCC(C)(C)C(F)(F)F)n2)nc1N1C[C@@H](C)CC1(C)C [VX-445, elexacaftor]
Isc in the presence of VX-445 ([1]; Fig 1J, single filters, VX-445 10 µM after forskolin/VX-770): 10 | decrease in forskolin plus VX-770-stimulated Isc ([1]; acute VX-445 10 µM, F508del corrected overnight with VX-445 1 µM plus VX-661 3 µM, 35 filters from five donors): 64 ± 2% | effect on BKCa [2]: act as direct potentiators
